# Results reported in US10723724B2, “Compounds for treating degenerative diseases of central nervous system or brain tumor, and uses thereof” (SUN YAT-SEN UNIVERSITY, priority 2016, dated 2020).
# What was measured:
# [1] = biological target: T1, ULK2 (Homo sapiens, UniProt Q8IYT8); assay: Kinase screening service: ULK2; format: biochemical; settings: average of duplicates
# T1 construct: purchased Life Technologies Corporation (Kinase Screening Service)
# Procedure: (§1) The inhibitory effect of PT109 on other kinases including SGK and JNK was detected by the Kinase Screening Service of Life Technologies Corporation (The concentration of compound 9 was 10 μM, measurements were performed in duplicates, and the value was represented by an average) to investigate the selectivity of the compound for JNK and SGK1.
# [2] = biological target: T2, EGFR (ErbB1) (Homo sapiens, UniProt P00533); assay: Kinase screening service: EGFR; format: biochemical; settings: average of duplicates
# T2 construct: purchased Life Technologies Corporation (Kinase Screening Service)
# Procedure: as §1
# [3] = biological target: T3, CSNK1G3 (CK1 gamma 3) (Homo sapiens, UniProt Q9Y6M4); assay: Kinase screening service: CSNK1G3; format: biochemical; settings: average of duplicates
# T3 construct: purchased Life Technologies Corporation (Kinase Screening Service)
# Procedure: as §1
# [4] = biological target: T4, GRK5 (Homo sapiens, UniProt P34947); assay: Kinase screening service: GRK5; format: biochemical; settings: average of duplicates
# T4 construct: purchased Life Technologies Corporation (Kinase Screening Service)
# Procedure: as §1
# [5] = biological target: T5, WNK2 (Homo sapiens, UniProt Q9Y3S1); assay: Kinase screening service: WNK2; format: biochemical; settings: average of duplicates
# T5 construct: purchased Life Technologies Corporation (Kinase Screening Service)
# Procedure: as §1
# [6] = biological target: T6, PDGFRB (PDGFR beta) (Homo sapiens, UniProt P09619); assay: Kinase screening service: PDGFRB; format: biochemical; settings: average of duplicates
# T6 construct: purchased Life Technologies Corporation (Kinase Screening Service)
# Procedure: as §1
# [7] = biological target: T7, PRKCH (PKC eta) (Homo sapiens, UniProt P24723); assay: Kinase screening service: PRKCH; format: biochemical; settings: average of duplicates
# T7 construct: purchased Life Technologies Corporation (Kinase Screening Service)
# Procedure: as §1
# [8] = biological target: T8, FLT1 (VEGFR1) (Homo sapiens, UniProt P17948); assay: Kinase screening service: FLT1; format: biochemical; settings: average of duplicates
# T8 construct: purchased Life Technologies Corporation (Kinase Screening Service)
# Procedure: as §1
# [9] = biological target: T9, CDK5/p35 (Homo sapiens, UniProt Q00535); assay: Kinase screening service: CDK5/p35; format: biochemical; settings: average of duplicates
# T9 construct: purchased Life Technologies Corporation (Kinase Screening Service)
# Procedure: as §1
# [10] = biological target: T10, MYO3B (MYO3 beta) (Homo sapiens, UniProt Q8WXR4); assay: Kinase screening service: MYO3B; format: biochemical; settings: average of duplicates
# T10 construct: purchased Life Technologies Corporation (Kinase Screening Service)
# Procedure: as §1
# [11] = biological target: T11, PDK1 Direct (Homo sapiens, UniProt O15530); assay: Kinase screening service: PDK1 Direct; format: biochemical; settings: average of duplicates
# T11 construct: purchased Life Technologies Corporation (Kinase Screening Service)
# Procedure: as §1
# [12] = biological target: T12, HIPK1 (Myak) (Homo sapiens, UniProt Q86Z02); assay: Kinase screening service: HIPK1; format: biochemical; settings: average of duplicates
# T12 construct: purchased Life Technologies Corporation (Kinase Screening Service)
# Procedure: as §1
# [13] = biological target: T13, TBK1 (Homo sapiens, UniProt Q9UHD2); assay: Kinase screening service: TBK1; format: biochemical; settings: average of duplicates
# T13 construct: purchased Life Technologies Corporation (Kinase Screening Service)
# Procedure: as §1
# [14] = biological target: T14, PDK1 (Homo sapiens, UniProt O15530); assay: Kinase screening service: PDK1; format: biochemical; settings: average of duplicates
# T14 construct: purchased Life Technologies Corporation (Kinase Screening Service)
# Procedure: as §1
# [15] = biological target: T15, AKT2 (PKB beta) (Homo sapiens, UniProt P31751); assay: Kinase screening service: AKT2; format: biochemical; settings: average of duplicates
# T15 construct: purchased Life Technologies Corporation (Kinase Screening Service)
# Procedure: as §1
# [16] = biological target: T16, CSNK2A2 (CK2 alpha 2) (Homo sapiens, UniProt P19784); assay: Kinase screening service: CSNK2A2; format: biochemical; settings: average of duplicates
# T16 construct: purchased Life Technologies Corporation (Kinase Screening Service)
# Procedure: as §1
# [17] = biological target: T17, CSNK2A1 (CK2 alpha 1) (Homo sapiens, UniProt P68400); assay: Kinase screening service: CSNK2A1; format: biochemical; settings: average of duplicates
# T17 construct: purchased Life Technologies Corporation (Kinase Screening Service)
# Procedure: as §1
# [18] = biological target: T18, MAP3K2 (MEKK2) (Homo sapiens, UniProt Q9Y2U5); assay: Kinase screening service: MAP3K2; format: biochemical; settings: average of duplicates
# T18 construct: purchased Life Technologies Corporation (Kinase Screening Service)
# Procedure: as §1
# [19] = biological target: T19, MKNK2 (MNK2) (Homo sapiens, UniProt Q9HBH9); assay: Kinase screening service: MKNK2; format: biochemical; settings: average of duplicates
# T19 construct: purchased Life Technologies Corporation (Kinase Screening Service)
# Procedure: as §1
# [20] = biological target: T20, RPS6KA4 (MSK2) (Homo sapiens, UniProt O75676); assay: Kinase screening service: RPS6KA4; format: biochemical; settings: average of duplicates
# T20 construct: purchased Life Technologies Corporation (Kinase Screening Service)
# Procedure: as §1
# [21] = tested on: other kinases including SGK and JNK; assay: Kinase selectivity of PT109 (whole panel); format: biochemical; settings: 10 μM, kinase panel of Table 2
# Procedure: as §1
# [22] = biological target: T21, NTRK3 (TRKC) (Homo sapiens, UniProt Q16288); assay: Kinase screening service: NTRK3; format: biochemical; settings: average of duplicates
# T21 construct: purchased Life Technologies Corporation (Kinase Screening Service)
# Procedure: as §1
# [23] = biological target: T22, PIK3CA/PIK3R1 (p110 alpha/p85 alpha) (Homo sapiens, UniProt P42336); assay: Kinase screening service: PIK3CA/PIK3R1; format: biochemical; settings: average of duplicates
# T22 construct: purchased Life Technologies Corporation (Kinase Screening Service)
# Procedure: as §1
# [24] = biological target: T23, TEC (Homo sapiens, UniProt P42680); assay: Kinase screening service: TEC; format: biochemical; settings: average of duplicates
# T23 construct: purchased Life Technologies Corporation (Kinase Screening Service)
# Procedure: as §1
# [25] = biological target: T24, NEK6 (Homo sapiens, UniProt Q9HC98); assay: Kinase screening service: NEK6; format: biochemical; settings: average of duplicates
# T24 construct: purchased Life Technologies Corporation (Kinase Screening Service)
# Procedure: as §1
# [26] = biological target: T25, CSNK1G1 (CK1 gamma 1) (Homo sapiens, UniProt Q9HCP0); assay: Kinase screening service: CSNK1G1; format: biochemical; settings: average of duplicates
# T25 construct: purchased Life Technologies Corporation (Kinase Screening Service)
# Procedure: as §1
# [27] = biological target: T26, SRMS (Srm) (Homo sapiens, UniProt Q9H3Y6); assay: Kinase screening service: SRMS; format: biochemical; settings: average of duplicates
# T26 construct: purchased Life Technologies Corporation (Kinase Screening Service)
# Procedure: as §1
# [28] = In vitro blood-brain barrier permeability (PBL artificial membrane); format: in vitro ADME
# Procedure: 1) 4 μL of 2% PBL solution was added to the hydrophobic membrane of a MAIPn 4550 96-well plate. During the dripping process, it should be noted that the pipette tip should not touch the surface of the membrane to avoid the damage to the membrane structure.
# 2) 200 μL of the test sample solution (0.1 mg/ml) was quickly (within 10 min) and quantitatively pipetted, and added to the upside of the membrane of the 96-well plate as a donor compartment. 200 μL of PBS (pH=7.4) was added to the other side of the membrane as an acceptor compartment. It should be noted that the acceptor solution should keep being in full contact with the membrane.
# 3) The donor compartment was carefully removed upon standing for 120 min at room temperature, and the absorbance of the compound (250-500 nm) in the acceptor compartment was tested by UV spectrometer.
# 4) 100 μL of the test sample solution was fully mixed with 100 μL of PBS, and the mixture was used as a theoretical equilibrium solution. Its absorbance (250-500 nm) was measured and tested with an acceptor plate.
# 5) The log Pe value was calculated by the following equation: […]
# wherein Vd is the volume of the donor compartment, Va is the volume of the acceptor compartment, A is the membrane area, t is the penetration time, [drug]acceptor is the absorbance of the acceptor compartment, and [drug]equilibrium is the absorbance of theoretical equilibrium. […]
# [29] = biological target: T27, WNK3 (Homo sapiens, UniProt Q9BYP7); assay: Kinase screening service: WNK3; format: biochemical; settings: average of duplicates
# T27 construct: purchased Life Technologies Corporation (Kinase Screening Service)
# Procedure: as §1
# [30] = biological target: T28, PIK3CG (p110 gamma) (Homo sapiens, UniProt P48736); assay: Kinase screening service: PIK3CG; format: biochemical; settings: average of duplicates
# T28 construct: purchased Life Technologies Corporation (Kinase Screening Service)
# Procedure: as §1
# T5 sequence (Q9Y3S1 whole entry): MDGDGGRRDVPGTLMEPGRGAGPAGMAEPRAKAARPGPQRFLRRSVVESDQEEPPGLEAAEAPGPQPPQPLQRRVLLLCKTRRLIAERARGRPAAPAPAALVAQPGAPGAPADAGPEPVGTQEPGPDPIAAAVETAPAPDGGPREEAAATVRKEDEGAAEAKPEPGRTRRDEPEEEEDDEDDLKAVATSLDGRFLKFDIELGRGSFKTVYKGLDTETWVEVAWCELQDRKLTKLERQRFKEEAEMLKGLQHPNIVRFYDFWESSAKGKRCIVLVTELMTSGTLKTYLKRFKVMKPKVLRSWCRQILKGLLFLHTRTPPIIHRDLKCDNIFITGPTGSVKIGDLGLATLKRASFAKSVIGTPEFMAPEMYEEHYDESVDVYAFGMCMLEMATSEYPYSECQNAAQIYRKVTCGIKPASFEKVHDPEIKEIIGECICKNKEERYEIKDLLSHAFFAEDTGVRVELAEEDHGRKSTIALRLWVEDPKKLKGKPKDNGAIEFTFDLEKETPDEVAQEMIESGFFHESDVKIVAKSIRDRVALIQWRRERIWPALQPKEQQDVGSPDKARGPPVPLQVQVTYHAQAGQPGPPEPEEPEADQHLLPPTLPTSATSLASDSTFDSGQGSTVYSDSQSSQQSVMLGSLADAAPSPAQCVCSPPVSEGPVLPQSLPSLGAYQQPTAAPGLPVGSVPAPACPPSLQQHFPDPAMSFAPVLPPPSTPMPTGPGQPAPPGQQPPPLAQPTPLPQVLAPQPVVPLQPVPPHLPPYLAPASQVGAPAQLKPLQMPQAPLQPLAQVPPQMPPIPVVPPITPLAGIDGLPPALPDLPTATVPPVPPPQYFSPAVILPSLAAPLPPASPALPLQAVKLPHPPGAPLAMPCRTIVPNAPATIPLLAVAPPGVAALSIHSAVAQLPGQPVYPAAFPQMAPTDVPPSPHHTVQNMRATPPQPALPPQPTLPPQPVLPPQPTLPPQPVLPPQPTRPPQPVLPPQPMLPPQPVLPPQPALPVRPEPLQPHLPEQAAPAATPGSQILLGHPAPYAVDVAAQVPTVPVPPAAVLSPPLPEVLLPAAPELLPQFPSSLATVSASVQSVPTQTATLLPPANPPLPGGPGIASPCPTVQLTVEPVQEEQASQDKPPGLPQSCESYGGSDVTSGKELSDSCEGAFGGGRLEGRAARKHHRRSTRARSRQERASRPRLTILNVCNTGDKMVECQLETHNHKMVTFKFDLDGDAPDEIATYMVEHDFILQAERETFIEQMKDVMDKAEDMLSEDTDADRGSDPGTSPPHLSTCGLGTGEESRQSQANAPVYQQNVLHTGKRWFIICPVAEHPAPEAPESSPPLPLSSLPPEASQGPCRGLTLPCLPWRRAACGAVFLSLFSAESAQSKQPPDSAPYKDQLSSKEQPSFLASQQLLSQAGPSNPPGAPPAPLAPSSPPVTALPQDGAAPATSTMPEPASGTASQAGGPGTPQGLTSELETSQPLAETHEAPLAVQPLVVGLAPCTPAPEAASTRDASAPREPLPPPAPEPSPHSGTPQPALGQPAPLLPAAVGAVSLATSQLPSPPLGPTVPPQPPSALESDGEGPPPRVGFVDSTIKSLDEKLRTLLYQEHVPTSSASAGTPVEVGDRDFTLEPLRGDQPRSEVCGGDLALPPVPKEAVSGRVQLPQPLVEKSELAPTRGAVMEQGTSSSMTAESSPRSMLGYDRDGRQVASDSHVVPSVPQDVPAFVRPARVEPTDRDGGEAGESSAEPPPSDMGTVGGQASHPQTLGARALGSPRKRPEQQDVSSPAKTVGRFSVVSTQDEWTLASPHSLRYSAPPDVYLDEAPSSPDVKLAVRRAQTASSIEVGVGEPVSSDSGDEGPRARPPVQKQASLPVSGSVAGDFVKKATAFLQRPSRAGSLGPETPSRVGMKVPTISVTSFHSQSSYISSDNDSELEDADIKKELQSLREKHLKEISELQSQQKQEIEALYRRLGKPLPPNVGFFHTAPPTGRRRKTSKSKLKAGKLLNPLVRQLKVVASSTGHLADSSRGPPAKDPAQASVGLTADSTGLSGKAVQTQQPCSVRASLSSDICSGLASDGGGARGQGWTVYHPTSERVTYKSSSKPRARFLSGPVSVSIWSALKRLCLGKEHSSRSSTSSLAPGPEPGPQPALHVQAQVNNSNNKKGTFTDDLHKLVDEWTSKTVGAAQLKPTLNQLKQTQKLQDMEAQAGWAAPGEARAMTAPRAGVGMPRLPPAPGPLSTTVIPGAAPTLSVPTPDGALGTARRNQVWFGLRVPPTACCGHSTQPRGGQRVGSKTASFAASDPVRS
# T15 sequence (P31751 whole entry): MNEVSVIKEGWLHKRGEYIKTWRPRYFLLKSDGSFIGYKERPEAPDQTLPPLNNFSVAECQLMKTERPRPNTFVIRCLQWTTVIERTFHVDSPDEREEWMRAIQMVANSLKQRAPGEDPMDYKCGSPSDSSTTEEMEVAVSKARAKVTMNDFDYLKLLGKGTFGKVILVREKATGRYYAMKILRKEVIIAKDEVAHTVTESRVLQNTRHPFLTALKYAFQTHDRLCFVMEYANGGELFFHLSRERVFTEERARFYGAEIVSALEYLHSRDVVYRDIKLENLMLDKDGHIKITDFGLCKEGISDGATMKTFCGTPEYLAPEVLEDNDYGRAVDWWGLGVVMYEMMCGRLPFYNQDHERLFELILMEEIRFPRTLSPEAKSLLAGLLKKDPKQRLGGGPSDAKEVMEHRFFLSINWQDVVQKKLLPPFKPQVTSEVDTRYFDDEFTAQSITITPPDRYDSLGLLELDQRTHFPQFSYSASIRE
# T12 sequence (Q86Z02 whole entry): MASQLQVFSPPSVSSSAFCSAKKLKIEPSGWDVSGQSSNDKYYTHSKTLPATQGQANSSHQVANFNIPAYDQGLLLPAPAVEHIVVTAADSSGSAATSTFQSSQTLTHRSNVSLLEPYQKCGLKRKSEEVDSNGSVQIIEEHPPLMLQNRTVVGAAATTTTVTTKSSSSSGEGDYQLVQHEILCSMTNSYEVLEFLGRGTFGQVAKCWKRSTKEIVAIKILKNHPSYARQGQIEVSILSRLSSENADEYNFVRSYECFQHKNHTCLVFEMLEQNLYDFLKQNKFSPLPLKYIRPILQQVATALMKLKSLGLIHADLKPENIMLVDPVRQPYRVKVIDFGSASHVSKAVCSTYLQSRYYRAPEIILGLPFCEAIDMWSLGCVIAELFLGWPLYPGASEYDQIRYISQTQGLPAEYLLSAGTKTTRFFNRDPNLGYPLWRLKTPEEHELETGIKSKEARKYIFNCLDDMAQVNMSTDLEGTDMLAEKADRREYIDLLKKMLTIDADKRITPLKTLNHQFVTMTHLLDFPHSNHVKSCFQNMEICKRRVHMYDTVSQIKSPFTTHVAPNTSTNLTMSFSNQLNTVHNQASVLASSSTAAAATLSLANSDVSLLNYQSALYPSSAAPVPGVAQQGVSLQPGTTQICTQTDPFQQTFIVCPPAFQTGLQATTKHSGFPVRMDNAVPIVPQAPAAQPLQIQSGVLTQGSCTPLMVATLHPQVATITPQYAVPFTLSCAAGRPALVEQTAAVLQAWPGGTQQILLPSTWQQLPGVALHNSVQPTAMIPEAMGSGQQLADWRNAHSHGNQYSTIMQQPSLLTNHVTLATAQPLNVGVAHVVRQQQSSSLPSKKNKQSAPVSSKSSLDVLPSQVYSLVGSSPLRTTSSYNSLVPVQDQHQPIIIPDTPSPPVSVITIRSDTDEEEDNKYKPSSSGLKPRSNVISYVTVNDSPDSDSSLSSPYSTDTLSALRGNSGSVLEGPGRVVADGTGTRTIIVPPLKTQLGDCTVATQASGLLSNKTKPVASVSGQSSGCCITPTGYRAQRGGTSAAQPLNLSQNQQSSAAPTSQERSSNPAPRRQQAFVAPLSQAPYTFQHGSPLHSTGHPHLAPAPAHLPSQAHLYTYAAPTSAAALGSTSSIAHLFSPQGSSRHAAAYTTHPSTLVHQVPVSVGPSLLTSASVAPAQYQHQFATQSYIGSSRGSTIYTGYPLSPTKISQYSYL
# T21 sequence (Q16288 32-839): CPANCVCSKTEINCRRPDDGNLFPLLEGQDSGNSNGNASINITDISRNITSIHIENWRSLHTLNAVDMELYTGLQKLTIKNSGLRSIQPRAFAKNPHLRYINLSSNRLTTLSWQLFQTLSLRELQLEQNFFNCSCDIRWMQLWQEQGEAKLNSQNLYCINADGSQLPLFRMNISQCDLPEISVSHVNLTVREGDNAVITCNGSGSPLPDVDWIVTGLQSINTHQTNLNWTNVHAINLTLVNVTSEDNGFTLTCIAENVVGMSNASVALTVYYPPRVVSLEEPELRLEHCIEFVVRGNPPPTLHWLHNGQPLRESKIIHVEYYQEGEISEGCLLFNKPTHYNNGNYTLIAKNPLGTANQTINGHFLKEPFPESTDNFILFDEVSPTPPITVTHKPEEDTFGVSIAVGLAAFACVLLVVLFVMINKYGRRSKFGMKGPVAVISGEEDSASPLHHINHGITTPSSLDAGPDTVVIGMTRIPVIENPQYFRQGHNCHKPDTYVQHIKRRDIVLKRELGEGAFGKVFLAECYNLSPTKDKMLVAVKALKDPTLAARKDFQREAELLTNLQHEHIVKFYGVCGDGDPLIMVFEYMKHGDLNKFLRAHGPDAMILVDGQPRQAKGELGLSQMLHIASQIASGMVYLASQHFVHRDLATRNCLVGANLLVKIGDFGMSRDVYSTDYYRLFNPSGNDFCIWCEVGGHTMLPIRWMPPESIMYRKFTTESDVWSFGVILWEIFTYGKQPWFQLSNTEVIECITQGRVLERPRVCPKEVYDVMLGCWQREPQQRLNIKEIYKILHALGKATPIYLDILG
# T24 sequence (Q9HC98 whole entry): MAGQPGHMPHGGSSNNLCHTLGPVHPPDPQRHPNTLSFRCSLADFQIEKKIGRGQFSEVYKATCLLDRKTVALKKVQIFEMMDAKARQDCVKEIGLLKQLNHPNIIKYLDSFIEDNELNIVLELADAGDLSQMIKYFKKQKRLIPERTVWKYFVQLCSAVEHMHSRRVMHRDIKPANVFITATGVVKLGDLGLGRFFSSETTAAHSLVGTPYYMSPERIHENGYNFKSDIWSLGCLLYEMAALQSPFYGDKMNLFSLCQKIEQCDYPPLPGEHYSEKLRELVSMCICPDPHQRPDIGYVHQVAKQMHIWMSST
smiles,measurement,setting,value
"O=C(CCCCC1CCSS1)NC1CCC(Nc2cccc3cnccc23)CC1 (stereo not shown) [PT109, 5-(1,2-dithiolan-3-yl)-N-(4-(isoquinolin-5-ylamino)cyclohexyl) pentanamide]",inhibition at 10 µM,[1],4%
same,inhibition at 10 µM,[2],-6%
same,inhibition at 10 µM,[3],24%
same,inhibition at 10 µM,[4],2%
same,inhibition at 10 µM,[5],13%
same,inhibition at 10 µM,[6],7%
same,inhibition at 10 µM,[7],-17%
same,inhibition at 10 µM,[8],3%
same,inhibition at 10 µM,[9],26%
same,inhibition at 10 µM,[10],43%
same,inhibition at 10 µM,[11],51%
same,inhibition at 10 µM,[12],0%
same,inhibition at 10 µM,[13],10%
same,inhibition at 10 µM,[14],5%
same,inhibition at 10 µM,[15],30%
same,inhibition at 10 µM,[16],11%
same,inhibition at 10 µM,[17],14%
same,inhibition at 10 µM,[18],10%
same,inhibition at 10 µM,[19],26%
same,inhibition at 10 µM,[20],28%
same,specificity for SGK1 and JNK,[21],better specificity for SGK1 and JNK
same,inhibition at 10 µM,[22],28%
same,inhibition at 10 µM,[23],56%
same,inhibition at 10 µM,[24],26%
same,inhibition at 10 µM,[25],3%
same,inhibition at 10 µM,[26],9%
same,inhibition at 10 µM,[27],20%
same,"Papp at 120 min, 0.1 mg/ml","[28]; PAMPA, PBL membrane, PBS pH=7.4, 120 min, room temperature, read-out: Pe",11.93 ± 0.08 ×10⁻⁶ cm/s
same,Prediction,[28]; from Pe,"CNS+ (If Pe×10^−6 cm s^−1 value is greater than 5.3, the compound is able to cross the blood-brain barrier)"
same,inhibition at 10 µM,[29],7%
same,inhibition at 10 µM,[30],9%
